# How the values were obtained:
# Format in all cases: physicochemical
# [1] = Chiral stability on storage as a solid at 40 °C and 75 % RH (chiral HPLC)
# Description: Example 8: Chiral stability: Representative samples of the crystalline sodium salt of (R)-3-[6-amino-pyridin-3-yl]-2-(1-cyclohexyl-1 H-imidazol-4-yl)-propionic acid sodium salt dihydrate as prepared in Example 3 were stored as a solid under the conditions (A) and (B): (A) 40 °C and 75 % RH 2 weeks; (B) 40 °C and 75 % RH 4 weeks: Results are shown in the following table:
# Under the storage conditions the samples remain stable. […] The purity was determined by chiral HPLC on a HPLC system containing a Quaternary HPLC pump (e.g. HP 1100), an auto sampler, an UV absorbance detector (e.g. DAD Agilent Technologies or other adequate HPLC-System) and a computer data acquisition system with suitable software (e.g. Dionex-Chromeleon). A Zorbax SB_CN (4.6 x 100 mm, 3.5 µlτ ? ), column was used as stationary phase and two mobile phases A (975 mL water, 25 mL methanol, 1 mL perchloric acid) and B (975 mL methanol, 25 mL water) were used as mobile phases. The flow rate was set to a value of 1.0 mL/minute and the oven temperature was set to 15°C. Detection was performed by absorbance of the compounds at 236 nm (UV) (bandwidth: 4 nm) and reference wavelength was set to 450 nm (bandwidth: 50 nm). Typical total run times were in the range of about 10 minutes. For sample preparation 20 mg of the substance were accurately weighed into a 10 ml volumetric flask and dissolved and diluted to volume with solvent (acetonitrile/water 90:10 VN). Afterwards 1 ml of this solution was transferred to a 10 mL volumetric flask and then diluted to volume with water. For the HPLC analysis 5 µl of the sample were injected into the system. Gradient used: 0 min (time elapsed) 0% mobile phase B, 1 min 0% mobile phase B, 4 min 53% mobile phase B, 6 min 95% mobile phase B, 7 min 95% mobile phase B, 7.5 min 0% mobile phase B and after 10 min 0% mobile phase B. Enanatiomeric excess was determined by chiral HPLC on a HPLC system containing a Quaternary HPLC pump (e.g. HP 1100), an auto sampler, an UV absorbance detector (e.g. DAD Agilent Technologies or other adequate HPLC-System) and a computer data acquisition system with suitable software (e.g. Dionex-Chromeleon). A Chirobiotic R, Supelco (Astec) (4.6 x 250mm; 5µηη) column was used as stationary phase and a solution of 800 mL water, 1200 mL acetonitrile and 1.0 g ammoniumacetate was used as mobile phase. The flow rate was set to a value of 1.5 mL/minute and the oven temperature was set to 45°C. Detection was performed by absorbance of the compounds at 236 nm (UV) (bandwidth: 8 nm) and reference wavelength was set to 450 nm (bandwidth: 50 nm). Typical total run times were in the range of about 15 minutes. For sample preparation 50 mg of the substance were accurately weighed into a 10 mL volumetric flask and dissolved and diluted to volume with solvent (acetonitrile/water 50:50). For the HPLC analysis 5 µí of the sample were injected into the system. Gradient used: Isograt (15 minutes 100% mobile phase A).
# Example 10: Chiral stability; Comparison Experiment: (R)-3-[6-amino-pyridin-3-yl]-2-(1-cyclohexyl-1 H-imidazol-4-yl)-propionic acid as prepared in Example 1 was used for the measurement. Representative samples of the compound (R)-3-[6-amino-pyridin-3-yl]-2-(1-cyclohexyl-1 H-imidazol-4-yl)-propionic acid as prepared in Example 1 were stored as a solid under the conditions (A) and (B) as defined in Example 8.
# [2] = Dynamic vapor sorption (DVS), SPS11-10µ, one cycle at 25 °C; conditions: DVS isotherm at 25 °C
# Description: (§1) Example 7: Dynamic vapor sorption (DVS) of (R)-3-[6-amino-pyridin-3-yl]-2-(1-cyclohexyl-1 H-imidazol-4-yl)-propionic acid sodium salt monohydrate: Moisture sorption/desorption isotherms were recorded on a SPS11-10µ from Projekt Messtechnik (Ulm, Germany). One cycle was run at 25 °C, in which the sample was first stepwise decreased to 0% RH and then the relative humidity was stepwise increased from 0 to 95% and the weight of the sample was measured. Typical total measurement times for both cycles were about 20 to 30 hours. The measured data for the (R)-3-[6-amino-pyridin-3-yl]-2-(1-cyclohexyl-1 H-imidazol-4-yl)-propionic acid sodium salt monohydrate as prepared in Examples 2 or 3 are shown in the following table: DVS Isotherm at 25 °C:
# (§2) Example 12: DVS, Comparison Experiment: (R)-3-[6-amino-pyridin-3-yl]-2-(1-cyclohexyl-1 H-imidazol-4-yl)-propionic acid as prepared in Example 1 was used for the measurement. The measurement was performed as disclosed in Example 7 with (R)-3-[6-amino-pyridin-3-yl]-2-(1-cyclohexyl-1 H-imidazol-4-yl)-propionic acid (free acid, amorphous) and the received data are shown in the following table: DVS Isotherm at 25 °C
# as §1, with “(DVS):” for “(DVS) of (R)-3-[6-amino-pyridin-3-yl]-2-(1-cyclohexyl-1 H-imidazol-4-yl)-propionic acid sodium salt monohydrate:”, “Room humidity (RH)” for “RH”, “dihydrate” for “monohydrate”, “Example” for “Examples 2 or”, “isotherm” for “Isotherm”, “25°C:” for “25 °C:”
# as §2, with “9:” for “12:”
# [3] = Determination of solubility in a mixture of acetone and water (4:1, by volume); conditions: for Solubility [g in 100 g of solvent]: acetone and water (4:1, by volume); for solubility compared with polymorph 1: result in words
# Description: Determination of solubility: For the determination of the solubility in a mixture of acetone and water (4:1, by volume), samples of 0.5 mg to 50 mg of the test substances were suspended in a defined amount of the solvent (800 mg to 1200 mg) in screw cap vials with a magnetic stirring bar, which were placed in a temperature-controlled multiple stirring device equipped for transmission measurement (Avantium Crystal 16). With stirring at 700 rpm, the vials were cooled from room temperature to 0 °C and then heated to 60 °C with a heating rate of 3 °C/h, kept at 60 °C for 2 h and cooled again to 0 °C with a cooling rate of 3 °C/h. By means of transmission measurement it was determined whether the sample was dissolved (100 % transmission), or crystals were present. For polymorph 1 ({drug5b}), polymorph 2 ({drug5c}), hydrate 1 ({drug5e}) and hydrate 2 ({drug5f}) of compound (V) the following solubilities in a mixture of acetone and water (4:1, by volume) were determined.
# [4] = Dynamic vapor sorption (DVS), DVS-1 instrument, two cycles at 25 °C; conditions: for weight increase in the sorption step: 25 °C
smiles,measurement,setting,value
Nc1ccc(C[C@@H](C(=O)[O-])c2cn(C3CCCCC3)cn2)cn1.O.O.[Na+] [(R)-3-[6-amino-pyridin-3-yl]-2-(1-cyclohexyl-1 H-imidazol-4-yl)-propionic acid sodium salt dihydrate],Enantiomeric excess,"[1]; Storage condition (A) 40 °C and 75 % RH 2 weeks, stored as a solid",99.6%
same,Enantiomeric excess,"[1]; Storage condition (B) 40 °C and 75 % RH 4 weeks, stored as a solid",99.5%
same,Enantiomeric excess,[1]; at the beginning,99.6%
same,Change In Mass (%) Desorption,[2]; Target RH 0.3 %,-0.1%
same,Change In Mass (%) Desorption,[2]; Target RH 10.0 %,0.0%
same,Change In Mass (%) Sorption,[2]; Target RH 10.0 %,0.0%
same,Change In Mass (%) Sorption,[2]; Target RH 20.0 %,0.0%
same,Change In Mass (%) Desorption,[2]; Target RH 20.1 %,0.0%
same,Change In Mass (%) Sorption,[2]; Target RH 30.0 %,0.0%
same,Change In Mass (%) Desorption,[2]; Target RH 30.1 %,0.0%
same,Change In Mass (%) Sorption,[2]; Target RH 40.0 %,0.0%
same,Change In Mass (%) Sorption,[2]; Target RH 50.0 %,0.0%
same,Change In Mass (%) Sorption,[2]; Target RH 60.0 %,0.1%
same,Change In Mass (%) Sorption,[2]; Target RH 70.1 %,0.71%
same,Change In Mass (%) Sorption,[2]; Target RH 75.0 %,0.8%
same,Change In Mass (%) Sorption,[2]; Target RH 80.0 %,2.1%
same,Change In Mass (%) Sorption,[2]; Target RH 85.1 %,2.7%
same,Change In Mass (%) Sorption,[2]; Target RH 90.1 %,18.8%
same,Change In Mass (%) Sorption,[2]; Target RH 94.9 %,51.8%
Nc1ccc(C[C@@H](C(=O)[O-])c2cn(C3CCCCC3)cn2)cn1.O.[Na+] [(R)-3-[6-amino-pyridin-3-yl]-2-(1-cyclohexyl-1 H-imidazol-4-yl)-propionic acid sodium salt monohydrate],Change In Mass (%) Desorption,[2]; Target RH 0.2 %,-4.4%
same,Change In Mass (%) Desorption,[2]; Target RH 10.0 %,-0.6%
same,Change In Mass (%) Sorption,[2]; Target RH 10.0 %,-3.7%
same,Change In Mass (%) Desorption,[2]; Target RH 20.0 %,-0.1%
same,Change In Mass (%) Sorption,[2]; Target RH 20.0 %,-0.2%
same,Change In Mass (%) Sorption,[2]; Target RH 30.0 %,0.2%
same,Change In Mass (%) Desorption,[2]; Target RH 30.1 %,0.1%
same,Change In Mass (%) Sorption,[2]; Target RH 40.0 %,0.6%
same,Change In Mass (%) Sorption,[2]; Target RH 50.0 %,0.9%
same,Change In Mass (%) Sorption,[2]; Target RH 60.0 %,1.5%
same,Change In Mass (%) Sorption,[2]; Target RH 70.0 %,4.0%
same,Change In Mass (%) Sorption,[2]; Target RH 75.0 %,8.2%
same,Change In Mass (%) Sorption,[2]; Target RH 80.1 %,11.9%
same,Change In Mass (%) Sorption,[2]; Target RH 85.1 %,17.7%
same,Change In Mass (%) Sorption,[2]; Target RH 90.0 %,38.2%
same,Change In Mass (%) Sorption,[2]; Target RH 94.9 %,67.4%
"CNc1nccc(-c2cc3cc(C(=O)N[C@@H](CN(c4ccccc4)c4ncccn4)C(N)=O)ccc3[nH]2)n1.O.O [Hydrate 1, 2-(2-methylamino-pyrimidin-4-yl)-1 H-indole-5-carboxylic acid [(S)-1-carbamoyl-2-(phenyl-pyrimidin-2-yl-amino)-ethyl]-amide dihydrate]",Solubility [g in 100 g of solvent],[3]; Temperature 38.6 °C,2.11 g in 100 g of solvent
same,Solubility [g in 100 g of solvent],[3]; Temperature 49.7 °C,3.39 g in 100 g of solvent
same,Solubility [g in 100 g of solvent],[3]; Temperature 57.4 °C,5.04 g in 100 g of solvent
same,solubility compared with polymorph 1,[3],higher solubility than polymorph 1
same,hygroscopicity,[4]; result in words,low hygroscopicity
"CNc1nccc(-c2cc3cc(C(=O)N[C@@H](CN(c4ccccc4)c4ncccn4)C(N)=O)ccc3[nH]2)n1.O.O.O.O.O.O [Hydrate 2, 2-(2-methylamino-pyrimidin-4-yl)-1 H-indole-5-carboxylic acid [(S)-1-carbamoyl-2-(phenyl-pyrimidin-2-yl-amino)-ethyl]-amide hexahydrate]",Solubility [g in 100 g of solvent],[3]; Temperature 36.8 °C,0.50 g in 100 g of solvent
same,Solubility [g in 100 g of solvent],[3]; Temperature 46.1 °C,1.02 g in 100 g of solvent
same,Solubility [g in 100 g of solvent],[3]; Temperature 55.9 °C,2.61 g in 100 g of solvent
same,solubility compared with polymorph 1,[3],higher solubility than polymorph 1
"CNc1nccc(-c2cc3cc(C(=O)N[C@@H](CN(c4ccccc4)c4ncccn4)C(N)=O)ccc3[nH]2)n1 [Polymorph 2, 2-(2-methylamino-pyrimidin-4-yl)-1 H-indole-5-carboxylic acid [(S)-1-carbamoyl-2-(phenyl-pyrimidin-2-yl-amino)-ethyl]-amide]",Solubility [g in 100 g of solvent],[3]; Temperature 46.0 °C,1.02 g in 100 g of solvent
same,Solubility [g in 100 g of solvent],[3]; Temperature 57.5 °C,2.48 g in 100 g of solvent
same,solubility compared with polymorph 1,[3],higher solubility than polymorph 1
same,weight increase in the sorption step,"[4]; Relative humidity 40 %, first cycle",0.2%
same,weight increase in the sorption step,"[4]; Relative humidity 40 %, second cycle",0.0%
same,weight increase in the sorption step,"[4]; Relative humidity 60 %, first cycle",0.3%
same,weight increase in the sorption step,"[4]; Relative humidity 60 %, second cycle",0.1%
same,weight increase in the sorption step,"[4]; Relative humidity 80 %, first cycle",0.4%
same,weight increase in the sorption step,"[4]; Relative humidity 80 %, second cycle",0.3%
same,weight increase in the sorption step,"[4]; Relative humidity 95 %, first cycle",0.8%
same,weight increase in the sorption step,"[4]; Relative humidity 95 %, second cycle",0.6%
same,water uptake (hygroscopicity),[4]; at a high relative humidity of 80 %,about 0.4%

# From patent EP2805705B1, “Packaging with one or more administration units comprising a sodium salt of (R)-3-[6-amino-pyridin-3-yl]-2-(1-cyclohexyl-1 H-imidazol-4-yl)-propionic acid” (IP Gesellschaft für Management mbH, priority 2013, dated 2014)
